Assay results from ChEMBL document CHEMBL4382286, “Nongenotoxic 3-Nitroimidazo[1,2-a]pyridines Are NTR1 Substrates That Display Potent in Vitro Antileishmanial Activity” (ACS Med Chem Lett, 2019).
pIC50: −log10 of the molar value.

What was measured:
[1] = Cytotoxicity against human HepG2 cells after 72 hrs by MTT assay; type: cell-based
Leishmania donovani [2] = experiment: Antileishmanial activity against intracellular amastigote stage of Leishmania donovani infected in human THP1 cells after 120 hrs by giemsa staining based microscopic analysis; type: functional, organism-based; conditions: THP-1, 120 h
Leishmania infantum = experiment: Antileishmanial activity against Leishmania infantum axenic amastigotes after 48 hrs by steady-glo luciferase reporter gene assay; type: functional, organism-based
[3] = test system: Trypanosoma brucei brucei; experiment: Antitrypanosomal activity against trypomastigote stage of Trypanosoma brucei brucei AnTat 1.9 assessed as decrease in parasite viability after 69 hrs by Alamar Blue assay; type: functional, organism-based; conditions: AnTat 1.9, 69 h
[4] = Aqueous solubility of the compound at >12.5 uM; type: physicochemical; conditions: buffer
[5] = Mutagenicity in Salmonella typhimurium TA97a at 62.5 to 625 uM preincubated for 1 hr followed by addition of molten top agar and measured 48 hrs post dark incubation by Ames test; type: toxicity; conditions: salmonella enterica subsp. enterica serovar typhimurium
[6] = Mutagenicity in Salmonella typhimurium TA98 at 62.5 to 625 uM preincubated for 1 hr followed by addition of molten top agar and measured 48 hrs post dark incubation by Ames test; type: toxicity; conditions: salmonella enterica subsp. enterica serovar typhimurium
[7] = Mutagenicity in Salmonella typhimurium TA100 at 62.5 to 625 uM preincubated for 1 hr followed by addition of molten top agar and measured 48 hrs post dark incubation by Ames test; type: toxicity; conditions: salmonella enterica subsp. enterica serovar typhimurium
[8] = Mutagenicity in Salmonella typhimurium TA102 at 62.5 to 625 uM preincubated for 1 hr followed by addition of molten top agar and measured 48 hrs post dark incubation by Ames test; type: toxicity; conditions: salmonella enterica subsp. enterica serovar typhimurium
[9] = Mutagenicity in Salmonella typhimurium TA97a at 62.5 to 625 uM preincubated for 1 hr with S9 mix followed by addition of molten top agar and measured 48 hrs post dark incubation by Ames test; type: toxicity, subcellular; conditions: salmonella enterica subsp. enterica serovar typhimurium, s9, 48 h
[10] = Mutagenicity in Salmonella typhimurium TA98 at 62.5 to 625 uM preincubated for 1 hr with S9 mix followed by addition of molten top agar and measured 48 hrs post dark incubation by Ames test; type: toxicity, subcellular; conditions: salmonella enterica subsp. enterica serovar typhimurium, s9, 48 h
[11] = Mutagenicity in Salmonella typhimurium TA100 at 62.5 to 625 uM preincubated for 1 hr with S9 mix followed by addition of molten top agar and measured 48 hrs post dark incubation by Ames test; type: toxicity, subcellular; conditions: salmonella enterica subsp. enterica serovar typhimurium, s9, 48 h
[12] = Mutagenicity in Salmonella typhimurium TA102 at 62.5 to 625 uM preincubated for 1 hr with S9 mix followed by addition of molten top agar and measured 48 hrs post dark incubation by Ames test; type: toxicity, subcellular; conditions: salmonella enterica subsp. enterica serovar typhimurium, s9, 48 h
[13] = Electrochemical behavior of the compound assessed as redox potential corrected toward normal hydrogen electrode by cyclic voltammetry
[14] = Selectivity index, ratio of CC50 for human HepG2 cells to IC50 for promastigote stage of Leishmania donovani MHOM/IN/00/DEVI; type: toxicity; conditions: read-out: Ratio CC50/IC50
Leishmania donovani [15] = experiment: Antileishmanial activity against promastigote stage of Leishmania donovani MHOM/IN/00/DEVI after 72 hrs by MTT assay; type: functional, organism-based
Trypanosoma cruzi = experiment: Antitrypanosomal activity against Trypanosoma cruzi MHOM/BR/78/Silvio cloneX10/7A epimastigotes measured after 4 days by resazurin dye based fluorescence assay; type: functional, organism-based; conditions: 96 h
Trichomonas vaginalis = experiment: Antiprotozoal activity against Trichomonas vaginalis TVR87 measured after 48 hrs by trypan blue assay; type: functional, organism-based
[16] = Solubility of the compound in RPMI medium at 4 to 6 uM; type: physicochemical
Leishmania major [17] = experiment: Antileishmanial activity against promastigote stage of Leishmania major MHOM/IL/81/Friedlin after 72 hrs by MTT assay; type: functional, organism-based
Leishmania major [18] = experiment: Antileishmanial activity against intracellular amastigote stage of Leishmania major infected in human THP1 cells after 120 hrs by giemsa staining based microscopic analysis; type: functional, organism-based; conditions: THP-1, 120 h
[19] = Cytotoxicity against human THP1 cells after 72 hrs by MTT assay; type: cell-based; conditions: THP-1 cells
[20] = Solubility of the compound in RPMI medium at >62.5 uM; type: physicochemical
Plasmodium falciparum = experiment: Antiplasmodial activity against chloroquine/proguanil/pyrimethamine-resistant synchronized stage of Plasmodium falciparum K1 after 72 hrs by SYBR green1 staining based spectrophotometric method; type: functional, organism-based; conditions: K1, 72 h

Row | SMILES | CC50 at 72 h [1] [nM] | selectivity ratio [14] | pIC50 (Leishmania donovani [15]) | solubility [16] | further results
1 | O=[N+]([O-])c1c(CS(=O)(=O)c2ccccc2)nc2c([S+]([O-])c3ccc(Cl)cc3)cc(Cl)cn12 (configuration not stated) | > 12500 | – | – | – | pIC50 (Leishmania donovani [2]): 5.89; pIC50 (Leishmania infantum): 5.80; pIC50 [3]: 6.22; solubility [4]: Insoluble; Activity [5]: Non-Toxic; Activity [6]: Non-Toxic; Activity [7]: Non-Toxic; Activity [8]: Non-Toxic; Activity [9]: Non-Toxic; Activity [10]: Non-Toxic; Activity [11]: Non-Toxic; Activity [12]: Non-Toxic; Activity [13]: -0.61 V
2 | N=C(N)c1ccc(OCCCCCOc2ccc(C(=N)N)cc2)cc1 [PENTAMIDINE] | – | 0.4 | – | – | –
3 | O=[N+]([O-])c1c(CS(=O)(=O)c2ccccc2)nc2c(Sc3ccccc3C(F)(F)F)cc(Cl)cn12 | > 4100 | > 2.7 | 5.82 | – | –
4 | CC1CS(=O)(=O)CCN1/N=C/c1ccc([N+](=O)[O-])o1 (configuration not stated) [NIFURTIMOX] | – | – | – | – | pIC50 (Trypanosoma cruzi): 6.52
5 | O=C(Cn1ccnc1[N+](=O)[O-])NCc1ccccc1 [BENZNIDAZOLE] | – | – | – | – | pIC50 (Trypanosoma cruzi): 5.92
6 | Cc1ncc([N+](=O)[O-])n1CCO [METRONIDAZOLE] | – | – | – | – | pIC50 (Trichomonas vaginalis): 5.38
7 | O=C(O)Cc1ccc(Sc2cc(Cl)cn3c([N+](=O)[O-])c(CS(=O)(=O)c4ccccc4)nc23)cc1 | > 62500 | > 1 | 4.18 | Soluble | –
8 | O=[N+]([O-])c1c(CS(=O)(=O)c2ccccc2)nc2c(SCc3ccccc3)cc(Cl)cn12 | – | – | – | Insoluble | –
9 | O=[N+]([O-])c1c(CS(=O)(=O)c2ccccc2)nc2c(Sc3ccc(Br)cc3)cc(Cl)cn12 | > 62500 | > 62.5 | 6.00 | Soluble | pIC50 (Leishmania donovani [2]): 5.46; pIC50 (Leishmania infantum): 5.05; pIC50 (Leishmania major [17]): 5.89; pIC50 (Leishmania major [18]): 5.30; pIC50 (Trichomonas vaginalis): 5.30 to 5.34; pIC50 [3]: 5.42; pIC50 (Trypanosoma cruzi): 5.21; CC50 at 72 h [19]: > 62500 nM; solubility [20]: Insoluble
10 | O=[N+]([O-])c1c(CS(=O)(=O)c2ccccc2)nc2c(SCc3ccc(Cl)cc3)cc(Cl)cn12 | – | – | – | Insoluble | –
11 | COc1cccc(Sc2cc(Cl)cn3c([N+](=O)[O-])c(CS(=O)(=O)c4ccccc4)nc23)c1 | > 15600 | > 6.8 | 5.64 | Insoluble | –
12 | O=[N+]([O-])c1c(CS(=O)(=O)c2ccccc2)nc2c(Sc3ccc(F)cc3)cc(Cl)cn12 | > 5000 | > 3.8 | 5.89 | – | –
13 | Cc1ccccc1Sc1cc(Cl)cn2c([N+](=O)[O-])c(CS(=O)(=O)c3ccccc3)nc12 | > 3900 | > 1.5 | 5.77 | – | –
14 | CC(C)c1ccc(Sc2cc(Cl)cn3c([N+](=O)[O-])c(CS(=O)(=O)c4ccccc4)nc23)cc1 | > 25000 | > 15.6 | 5.80 | Insoluble | –
15 | C[C@@H]1[C@H](O)[C@@H](C)/C=C/C=C/C=C/C=C/C=C/C=C/C=C/[C@H](O[C@@H]2O[C@H](C)[C@@H](O)[C@H](N)[C@@H]2O)C[C@@H]2O[C@](O)(C[C@@H](O)C[C@@H](O)[C@H](O)CC[C@@H](O)C[C@@H](O)CC(=O)O[C@H]1C)C[C@H](O)[C@H]2C(=O)O [AMPHOTERICIN B] | – | – | – | – | pIC50 (Leishmania major [17]): 6.22; pIC50 (Leishmania major [18]): 6.70
16 | O=[N+]([O-])c1c(CS(=O)(=O)c2ccccc2)nc2c(Sc3ccccc3F)cc(Cl)cn12 | > 5000 | > 4.2 | 5.92 | – | –
17 | O=[N+]([O-])c1c(CS(=O)(=O)c2ccccc2)nc2c(Sc3cccc(C(F)(F)F)c3)cc(Cl)cn12 | > 3900 | > 2.4 | 5.89 | – | –

Row | SMILES | CC50 at 72 h [1] [nM] | selectivity ratio [14] | pIC50 (Leishmania donovani [15]) | solubility [16] | further results
18 | COc1ccccc1Sc1cc(Cl)cn2c([N+](=O)[O-])c(CS(=O)(=O)c3ccccc3)nc12 | > 50000 | > 21.7 | 5.64 | – | –
19 | O=[N+]([O-])c1c(CS(=O)(=O)c2ccccc2)nc2c(Sc3ccc(C(F)(F)F)cc3)cc(Cl)cn12 | > 3900 | > 1.5 | 5.68 | – | –
20 | O=[N+]([O-])c1c(CS(=O)(=O)c2ccccc2)nc2c(Sc3ccccc3Cl)cc(Cl)cn12 | > 5000 | > 3.6 | 5.85 | – | –
21 | O=[N+]([O-])c1c(CS(=O)(=O)c2ccccc2)nc2c(Sc3cccc(Cl)c3Cl)cc(Cl)cn12 | > 25000 | > 12.5 | 5.70 | Insoluble | –
22 | O=[N+]([O-])c1c(CS(=O)(=O)c2ccccc2)nc2c(Sc3ccc(Cl)cc3Cl)cc(Cl)cn12 | > 3900 | > 2.2 | 5.77 | – | –
23 | CSc1ccc(OCc2ncc([N+](=O)[O-])n2C)cc1 [FEXINIDAZOLE] | > 200000 | – | – | – | pIC50 (Leishmania donovani [2]): < 4.30; pIC50 (Trypanosoma cruzi): 5.05; CC50 at 72 h [19]: > 62500 nM
24 | O=[N+]([O-])c1c(CS(=O)(=O)c2ccccc2)nc2c(Sc3cccc(F)c3)cc(Cl)cn12 | > 3900 | > 2.1 | 5.92 | – | –
25 | O=C1C(O)=C([C@H]2CC[C@H](c3ccc(Cl)cc3)CC2)C(=O)c2ccccc21 [ATOVAQUONE] | – | – | – | – | pIC50 (Plasmodium falciparum): 9.00
26 | O=[N+]([O-])c1c(CS(=O)(=O)c2ccccc2)nc2c(SCc3ccc(Br)cc3)cc(Cl)cn12 | – | – | – | Insoluble | –
27 | Cc1cccc(Sc2cc(Cl)cn3c([N+](=O)[O-])c(CS(=O)(=O)c4ccccc4)nc23)c1 | > 5600 | > 4 | 5.85 | – | –
28 | O=[N+]([O-])c1c(CS(=O)(=O)c2ccccc2)nc2c(Sc3cc(Cl)ccc3Cl)cc(Cl)cn12 | > 3900 | > 1.5 | 5.89 | – | –
29 | Cc1ccc(Sc2cc(Cl)cn3c([N+](=O)[O-])c(CS(=O)(=O)c4ccccc4)nc23)cc1 | > 3900 | > 2.2 | 5.85 | – | –
30 | O=[N+]([O-])c1c(CS(=O)(=O)c2ccccc2)nc2c(Sc3cccc(Cl)c3)cc(Cl)cn12 | > 3900 | > 3.6 | 6.15 | – | –
31 | COc1ccc(Sc2cc(Cl)cn3c([N+](=O)[O-])c(CS(=O)(=O)c4ccccc4)nc23)cc1 | > 62500 | > 41.7 | 5.82 | Soluble | –
32 | COc1ccc(CSc2cc(Cl)cn3c([N+](=O)[O-])c(CS(=O)(=O)c4ccccc4)nc23)cc1 | – | – | – | Insoluble | –
33 | O=[N+]([O-])c1c(CS(=O)(=O)c2ccccc2)nc2c(Sc3ccccc3)cc(Cl)cn12 | > 3900 | > 2.3 | 5.77 | – | –
